Values of other authors in US20060069157A1, “Method of ameliorating or abrogating the effects of a neurodegenerative disorder, such as Huntington's disease, by sodium butyrate chemotherapy” (U.S. DEPARTMENT OF VETERANS AFFAIRS, priority 2004, published 2006).

Key:
[1] = test system: Drosophila model of HD; details: Drosophila model of HD (Steffan 2001); cited from earlier work
[2] = test system: transgenic HD mice; details: cyclodextrin as a carrier; transgenic HD mice (Hockly et al., 2003); cited from earlier work

O=C(CCCCCCC(=O)Nc1ccccc1)NO [SAHA, suberoylanilide hydroxamic acid]
photoreceptor neuron degeneration and lethality [1]: slow photoreceptor neuron degeneration and ameliorate lethality | histone levels [2]: increase histone levels | motor performance [2]: improve motor performance
